US11541029B2, “High penetration compositions and their applications” (Techfields Pharma Co., Ltd., priority 2008, dated 2023)

What was measured:
normal SD rats (SLAC/SD) = test: Blood glucose in normal SD rats treated with HPCs of NSAIAs; format: in vivo; conditions: 30 mg/kg transdermally once per day, no fasting
Procedure: (§1) A HPC in the present disclosure lowered blood glucose levels in rat models (SLAC/GK, type 2 diabetes, n=7). 30 mg/kg of 8% diethylaminoethyl acetylsalicylate.HCl salt (P-1, in 25% ethanol); 4-acetamidophenyl salicylyldimethylaminobutyrate.HCl (P-6, in 25% ethanol), diethylaminoethyl 5-(2,4-difluorophenyl)acetylsalicylate.5-(2,4-difluorophenyl)acetylsalicylic acid salt (P-8, in 25% ethanol), diethylaminoethyl salicylsalicylate.HCl salt (P-9, in 25% ethanol), diethylaminoethyl salicylate.AcOH(P-10, in 25% ethanol), diethylaminoethyl 5-acetamido-acetylsalicylate.HCl(P-58, in 25% ethanol), diethylaminoethyl acetylsalicylsalicylate. HCl salt (P-59, in 25% ethanol), diethylaminoethyl acetylsalicylsalicylsalicylate. HCl salt (P-60, in 25% ethanol) were administered transdermally to the backs (6 cm^2, fur was shaved) of GK rats (SLAC/GK, 14-16 weeks old) and normal SD rats (SLAC/SD, 14-16 weeks old) once per day (at 8 am) for 6 weeks.
(§2) The blood glucose levels were measured once every 3 days at 4:30 pm (no fasting) from the third week to the sixth week as shown in Table 10a and 10b. […] Moreover, the blood glucose levels of the rats stayed at normal level (6-9 mmol/L, no fasting) after the treatment was stopped for 40 days.

[1] = tested on: GK rats (SLAC/GK, type 2 diabetes); test: Anti-diabetes (type II) activity of HPCs of NSAIAs in GK rats; format: in vivo; conditions: 30 mg/kg transdermally once per day, no fasting
Procedure: as §1, §2

[2] = tested on: SLAC:NOD-IDDM, type 1 diabetes; test: Anti-diabetes (type I) activity of HPCs of NSAIAs; format: in vivo, mice; conditions: for blood glucose, Baseline: equal to 20 mg/kg of NSAIAs transdermally twice per day for 7 weeks; for blood glucose, Average: fourth week to seventh week, no fasting, equal to 20 mg/kg of NSAIAs transdermally twice per day
Source text: 10% aqueous solution of diethylaminoethyl acetylsalicylate.acetylsalicylic acid salt (P-1, […]); 4-acetamidophenyl salicylyldimethylaminobutyrate. HCl (P-6), diethylaminoethyl 5-(2,4-difluorophenyl)acetylsalicylate.5-(2,4-difluorophenyl)acetylsalicylic acid salt (P-8), diethylaminoethyl salicylsalicylate.AcOH(P-9), diethylaminoethyl 5-acetamido-acetylsalicylate. HCl (P-58), diethylaminoethyl 2-(ρ-isobutylphenyl) propionate.citric acid (P-59), diethylaminoethyl acetylsalicylsalicylate. acetylsalicylsalicylsalicylic acid salt (P-60) (equal to of 20 mg/kg of NSAIAs) were administered transdermally to the shaved back (about 1.5 cm^2) of mice twice per day (at 8 am and 5 pm) for 7 weeks.
The blood glucose levels were measured once every 3 days at 4:30 pm (no fasting) from the fourth week to the seventh week as shown in Table 11.

SLAC/DB/DB obese mice = test: Blood glucose and blood lipid levels in DB/DB mice; format: in vivo; conditions: 30 mg/kg transdermally once per day
Procedure: HPCs in the present disclosure lowered blood glucose levels and blood lipid levels in mice models (SLAC/DB/DB, obese mice, n=7). 30 mg/kg of 8% diethylaminoethyl acetylsalicylate.HCl salt (P-1, in 25% ethanol); 4-acetamidophenyl salicylyldimethylaminobutyrate.HCl (P-6, in 25% ethanol), diethylaminoethyl 5-(2,4-difluorophenyl)acetylsalicylate.5-(2,4-difluorophenyl)acetylsalicylic acid salt (P-8, in 25% ethanol), diethylaminoethyl salicylsalicylate.HCl salt (P-9, in 25% ethanol), diethylaminoethyl salicylate.AcOH(P-10, in 25% ethanol), diethylaminoethyl 5-acetamido-acetylsalicylate.HCl(P-58, in 25% ethanol), diethylaminoethyl acetylsalicylsalicylate.HCl salt (P-59, in 25% ethanol), diethylaminoethyl acetylsalicylsalicylsalicylate.HCl salt (P-60, in 25% ethanol) were administered transdermally to the backs (4 cm^2,fur was shaved) of DB/DB mice(SLAC/DB/DB, 10-12 weeks old) once per day (at 8 am) for 5 weeks. The blood glucose levels were measured once per week and blood lipid levels were measured once every other week.

`CC(=O)Oc1ccc(-c2ccc(F)cc2F)cc1C(=O)O.CCN(CC)CCOC(=O)c1cc(-c2ccc(F)cc2F)ccc1OC(C)=O` [P-8, diethylaminoethyl 5-(2,4-difluorophenyl)acetylsalicylate.5-(2,4-difluorophenyl)acetylsalicylic acid salt] was tested, and the “blood glucose, Average (Week 2-5)” value (normal SD rats (SLAC/SD)) was 5.7 ± 1.2 mmol/L, the “blood glucose, Day 1” value (normal SD rats (SLAC/SD)) was 5.6 ± 1.5 mmol/L and the “blood glucose, Average (Week 2-5)” value [1] was 8.3 ± 2.1 mmol/L. The “blood glucose, Day 1” value [1] was 16.9 ± 2.8 mmol/L, the “blood glucose, Baseline” value [2] was 19.4 ± 3.1 mmol/L and the “blood glucose, Average” value [2] was 9.7 ± 1.4 mmol/L. For the same compound, the “Cholesterol (total), Day 1” value (SLAC/DB/DB obese mice) was 6.8 ± 0.4 mmol/L, the “Cholesterol (total), Week 5” value (SLAC/DB/DB obese mice) was 5.0 ± 0.2 mmol/L and the “Triglycerides, Day 1” value (SLAC/DB/DB obese mice) was 4.4 ± 0.4 mmol/L. The “Triglycerides, Week 5” value (SLAC/DB/DB obese mice) was 2.2 ± 0.4 mmol/L, the “blood glucose, Day 1” value (SLAC/DB/DB obese mice) was 14.5 ± 2.7 mmol/L and the “blood glucose, Week 5” value (SLAC/DB/DB obese mice) was 8.4 ± 2.1 mmol/L.
With `CCN(CC)CCOC(=O)c1ccccc1OC(=O)c1ccccc1OC(=O)c1ccccc1OC(C)=O.Cl` [P-60, diethylaminoethyl acetylsalicylsalicylsalicylate. HCl salt] the “blood glucose, Average (Week 2-5)” value (normal SD rats (SLAC/SD)) was 5.7 ± 1.1 mmol/L, the “blood glucose, Day 1” value (normal SD rats (SLAC/SD)) was 5.6 ± 1.3 mmol/L and the “blood glucose, Average (Week 2-5)” value [1] was 9.3 ± 2.9 mmol/L. The “blood glucose, Day 1” value [1] was 15.9 ± 2.8 mmol/L, the “blood glucose, Baseline” value [2] was 17.5 ± 3.3 mmol/L and the “blood glucose, Average” value [2] was 8.8 ± 1.9 mmol/L. For the same compound, the “Cholesterol (total), Day 1” value (SLAC/DB/DB obese mice) was 7.0 ± 0.8 mmol/L, the “Cholesterol (total), Week 5” value (SLAC/DB/DB obese mice) was 5.0 ± 0.4 mmol/L and the “Triglycerides, Day 1” value (SLAC/DB/DB obese mice) was 4.3 ± 0.5 mmol/L. For the same compound, the “Triglycerides, Week 5” value (SLAC/DB/DB obese mice) was 4.3 ± 0.5 mmol/L, the “blood glucose, Day 1” value (SLAC/DB/DB obese mice) was 14.8 ± 2.7 mmol/L and the “blood glucose, Week 5” value (SLAC/DB/DB obese mice) was 9.0 ± 2.1 mmol/L.
`CCN(CC)CCOC(=O)c1cc(NC(C)=O)ccc1OC(C)=O.Cl` [P-58, diethylaminoethyl 5-acetamido-acetylsalicylate.HCl] was tested, and the “blood glucose, Average (Week 2-5)” value (normal SD rats (SLAC/SD)) was 5.8 ± 1.1 mmol/L, the “blood glucose, Day 1” value (normal SD rats (SLAC/SD)) was 5.9 ± 1.2 mmol/L and the “blood glucose, Average (Week 2-5)” value [1] was 9.4 ± 3.0 mmol/L. For the same compound, the “blood glucose, Day 1” value [1] was 17.1 ± 2.8 mmol/L, the “blood glucose, Baseline” value [2] was 17.9 ± 3.2 mmol/L and the “blood glucose, Average” value [2] was 8.1 ± 1.9 mmol/L. The “Cholesterol (total), Day 1” value (SLAC/DB/DB obese mice) was 7.1 ± 0.3 mmol/L, the “Cholesterol (total), Week 5” value (SLAC/DB/DB obese mice) was 5.1 ± 0.6 mmol/L and the “Triglycerides, Day 1” value (SLAC/DB/DB obese mice) was 4.9 ± 0.4 mmol/L. The “Triglycerides, Week 5” value (SLAC/DB/DB obese mice) was 4.3 ± 0.5 mmol/L, the “blood glucose, Day 1” value (SLAC/DB/DB obese mice) was 15.6 ± 2.9 mmol/L and the “blood glucose, Week 5” value (SLAC/DB/DB obese mice) was 9.3 ± 2.1 mmol/L.
With `CC(=O)Nc1ccc(OC(=O)c2ccccc2OC(=O)CCCN(C)C)cc1.Cl` [P-6, 4-acetamidophenyl salicylyldimethylaminobutyrate.HCl] the “blood glucose, Average (Week 2-5)” value (normal SD rats (SLAC/SD)) was 5.8 ± 1.1 mmol/L, the “blood glucose, Day 1” value (normal SD rats (SLAC/SD)) was 5.7 ± 1.3 mmol/L and the “blood glucose, Average (Week 2-5)” value [1] was 9.2 ± 2.7 mmol/L. The “blood glucose, Day 1” value [1] was 16.8 ± 3.0 mmol/L, the “blood glucose, Baseline” value [2] was 18.9 ± 4.3 mmol/L and the “blood glucose, Average” value [2] was 9.5 ± 2.1 mmol/L. For the same compound, the “Cholesterol (total), Day 1” value (SLAC/DB/DB obese mice) was 7.0 ± 0.4 mmol/L, the “Cholesterol (total), Week 5” value (SLAC/DB/DB obese mice) was 4.9 ± 0.5 mmol/L and the “Triglycerides, Day 1” value (SLAC/DB/DB obese mice) was 4.4 ± 0.5 mmol/L. For the same compound, the “Triglycerides, Week 5” value (SLAC/DB/DB obese mice) was 2.5 ± 0.3 mmol/L, the “blood glucose, Day 1” value (SLAC/DB/DB obese mice) was 14.2 ± 2.0 mmol/L and the “blood glucose, Week 5” value (SLAC/DB/DB obese mice) was 9.5 ± 2.8 mmol/L.
In the case of `CC(=O)O.CCN(CC)CCOC(=O)c1ccccc1O` [P-10, diethylaminoethyl salicylate.AcOH], the “blood glucose, Average (Week 2-5)” value (normal SD rats (SLAC/SD)) is reported as 5.7 ± 1.3 mmol/L, the “blood glucose, Day 1” value (normal SD rats (SLAC/SD)) is reported as 5.8 ± 1.2 mmol/L and the “blood glucose, Average (Week 2-5)” value [1] is reported as 9.1 ± 2.2 mmol/L. For the same compound, the “blood glucose, Day 1” value [1] was 16.7 ± 3.2 mmol/L, the “blood glucose, Baseline” value [2] was 18.8 ± 3.4 mmol/L and the “blood glucose, Average” value [2] was 8.6 ± 1.8 mmol/L. The “Cholesterol (total), Day 1” value (SLAC/DB/DB obese mice) was 6.8 ± 0.4 mmol/L, the “Cholesterol (total), Week 5” value (SLAC/DB/DB obese mice) was 4.7 ± 0.5 mmol/L and the “Triglycerides, Day 1” value (SLAC/DB/DB obese mice) was 4.8 ± 0.9 mmol/L. For the same compound, the “Triglycerides, Week 5” value (SLAC/DB/DB obese mice) was 2.3 ± 0.3 mmol/L, the “blood glucose, Day 1” value (SLAC/DB/DB obese mice) was 15.1 ± 3.7 mmol/L and the “blood glucose, Week 5” value (SLAC/DB/DB obese mice) was 9.2 ± 2.3 mmol/L.
